From PubChem BioAssay AID651764 (The Scripps Research Institute Molecular Screening Center, 2012)
Activity calls are given as the source filed them. The rule behind the calls is not given here.

Target: Delta-type opioid receptor (Homo sapiens) (UniProt P41143)
Assay: activators in OPRD1-only cells, late-stage follow-up, counter-screen for OPRM1-OPRD1 heterodimer activator project, cell-based, luminescence, dose response, set 2 (AID 651764)
Details: OPRD1 cell-based luminescence activation counterscreen

Delta-type opioid receptor (Homo sapiens), sequence (P41143 whole entry, looked up): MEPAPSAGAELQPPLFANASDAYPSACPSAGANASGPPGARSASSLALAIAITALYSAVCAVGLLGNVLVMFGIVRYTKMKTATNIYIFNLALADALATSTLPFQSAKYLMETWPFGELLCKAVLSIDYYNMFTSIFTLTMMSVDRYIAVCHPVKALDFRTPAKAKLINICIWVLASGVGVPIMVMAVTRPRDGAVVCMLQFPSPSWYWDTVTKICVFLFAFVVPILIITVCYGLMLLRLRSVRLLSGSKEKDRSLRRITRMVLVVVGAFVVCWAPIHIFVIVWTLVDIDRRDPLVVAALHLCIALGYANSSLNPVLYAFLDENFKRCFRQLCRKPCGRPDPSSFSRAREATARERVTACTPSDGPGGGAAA

Structure (SMILES) | EC50
CCOC(=O)C1(Cc2ccc(OC)cc2)CCN(C(=O)c2ccc(N(C)C)cc2)CC1 | > 50 µM (inactive)
CCOC(=O)C1CCN(Cc2ccc(NC(C)=O)cc2)CC1 | > 50 µM (inactive)
CCOC(=O)C1(CCOC)CCCN(Cc2ccc(NC(C)=O)cc2)C1 (stereo not drawn) | > 50 µM (inactive)
CCOC(=O)C1(CCOC)CCN(Cc2ccc(NC(C)=O)cc2)CC1 | > 50 µM (inactive)
CCOC(=O)C1(Cc2ccccc2)CCCN(Cc2ccc(NC(C)=O)cc2)C1 (stereo not drawn) | > 50 µM (inactive)
CCOC(=O)C1(CCc2ccccc2)CCN(Cc2c(O)cccc2OC)CC1 | > 50 µM (inactive)
CCOC(=O)C1(CCc2ccccc2)CCN(Cc2ccc(O)cc2)CC1 | > 50 µM (inactive)
CCOC(=O)C1CCN(CCC(=O)Nc2ccc(C)cc2)CC1 | > 50 µM (inactive)
CCOC(=O)C1(CCOc2ccccc2)CCCN(Cc2ccc(NC(C)=O)cc2)C1 (stereo not drawn) | > 50 µM (inactive)
CCOC(=O)C1(CCc2ccccc2)CCN(Cc2ccc(C#CC(C)(C)O)cc2)CC1 | > 50 µM (inactive)
CCOC(=O)C1(CCc2ccccc2)CCN(Cc2ccc(OC)cc2)CC1 | > 50 µM (inactive)
O=C(O)C1CCCCC1C(=O)Nc1ccc(CN2CCCCC2)cc1 (stereo not drawn) | > 50 µM (inactive)
CCOC(=O)C1CCN(C(=O)c2ccc(N(C)C)cc2)CC1 | > 50 µM (inactive)
C=Cc1ccc(C(=O)N2CCC(CCc3ccccc3)(C(=O)OCC)CC2)cc1 | > 50 µM (inactive)
CCOC(=O)C1(CCc2ccccc2)CCN(Cc2ccncc2)CC1 | > 50 µM (inactive)
CCOC(=O)C1(Cc2ccccc2Cl)CCN(Cc2ccc(NC(C)=O)cc2)CC1 | 0.321 µM
CCOC(=O)C1(Cc2cccc(OC)c2)CCCN(Cc2ccc(NC(C)=O)cc2)C1 (stereo not drawn) | > 50 µM (inactive)
CCOC(=O)C1(CCc2ccccc2)CCCN(Cc2ccc(N3CCNC3=O)cc2)C1 (stereo not drawn) | > 50 µM (inactive)
CCOC(=O)C1(CCOC)CCN(Cc2ccc(N(C)c3ccccc3)cc2)CC1 | > 50 µM (inactive)
CCOC(=O)C1(CC2CC2)CCN(Cc2ccc(NC(C)=O)cc2)CC1 | > 50 µM (inactive)
CC(=O)Nc1ccc(CN2CCCC(CO)(CCc3ccccc3)C2)cc1 (stereo not drawn) | > 50 µM (inactive)
CCOC(=O)C1(CCc2ccccc2)CCN(Cc2ccc(C(=O)OC)cc2)CC1 | > 50 µM (inactive)
CCOC(=O)C1(CCc2ccccc2)CCN(C(=O)Nc2ccc(C)cc2C)CC1 | > 50 µM (inactive)
CCOC(=O)C1(CC2CC2)CCN(C(=O)c2ccc(N3CCCCC3)cc2)CC1 | > 50 µM (inactive)
CCOC(=O)C1CCN(Cc2ccc(N(C)C)cc2)CC1 | > 50 µM (inactive)
CCOC(=O)C1(Cc2ccccc2C)CCCN(Cc2ccc(NC(C)=O)cc2)C1 (stereo not drawn) | > 50 µM (inactive)
CCOC(=O)C1CCCCN1Cc1ccc(NC(C)=O)cc1 (stereo not drawn) | > 50 µM (inactive)
C=Cc1ccc(C(=O)N2CCC(CCCc3ccccc3)(C(=O)OCC)CC2)cc1 | > 50 µM (inactive)
